Test results reported in patent US9481648B2, “Kinase inhibitors” (Respivert Limited, priority 2013, dated 2016).
Where two headings read alike, the source gives them in different places.

Tests used:
[1] = target: GSK 3α (Homo sapiens (Human), UniProt P49840); assay: GSK 3α enzyme inhibition (FRET, Z-LYTE; Method 2); type: biochemical; settings: read-out: IC50 Values for Enzyme Inhibition GSK3α
Procedure, shortened: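 Phosphorylation was taken from the donor (coumarin) to acceptor (fluorescein) emission ratio after 1 h protease development, which cleaves only unphosphorylated peptide. Before that, peptide (8 μM stock) plus ATP (40 μM stock) reacted 1 h. This followed a 105 min RT preincubation of GSK3-α with compound stocks of 10–0.01 μg/mL.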

[2] = test system: PBMCs; assay: LPS-induced TNFα/IL-8 release in PBMC cells (assay b); type: cell-based, human; settings: LPS-stimulated, read-out: IC50 Values for Inhibition of Cytokine Release PBMCs IL-8
Method: Peripheral blood mononuclear cells (PBMCs) from healthy subjects are separated from whole blood using a density gradient (Lymphoprep, Axis-Shield Healthcare). The PBMCs are seeded in 96 well plates and treated with compounds at the desired concentration for 2 hours before addition of 1 ng/mL LPS (Escherichia Coli 0111:B4 from Sigma Aldrich) for 24 hours under normal tissue culture conditions (37° C., 5% CO2). The supernatant is harvested for determination of IL-8 and TNFα concentrations by sandwich ELISA (Duo-set, R&D systems) and read on the fluorescence microplate reader (Varioskan® Flash, ThermoFisher Scientific).

[3] = target: p38 MAPKα (MAPK14) (Homo sapiens (Human), UniProt Q16539); assay: p38 MAPKα enzyme inhibition (FRET, Z-LYTE; Method 2); type: biochemical
[4] = target: c-Src (Homo sapiens (Human), UniProt P12931); assay: c-Src enzyme inhibition (FRET, Z-LYTE); type: biochemical
Procedure, shortened: (§1)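 Syk or c-Src enzyme (3000 or 2000 ng/mL solutions) was preincubated 2 h at RT with compound solutions at 1, 0.1, 0.01 or 0.001 µg/mL. Z-LYTE FRET peptide (8 µM solution) and ATP (800 µM solution for c-Src, 60 µM for Syk) were then added for 1 h, followed by protease development for 1 h. Phosphorylation was read as the coumarin/fluorescein emission ratio.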

[5] = target: Syk (Homo sapiens (Human), UniProt P43405); assay: Syk enzyme inhibition (FRET, Z-LYTE); type: biochemical
Procedure, shortened: as §1

[6] = test system: β-catenin in d-U937 cells; assay: Accumulation of β catenin in d-U937 cells (assay m); type: cell-based, human
Procedure, shortened: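 U937 cells were differentiated with PMA (100 ng/mL) for 48–72 hr, then treated with compound or vehicle for 18 hr. After formaldehyde fixation, β-catenin was detected with a primary antibody and an HRP secondary using TMB (OD450–655). Signal was normalised to crystal violet cell staining (OD595).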

[7] = target: CYP3A4 (Homo sapiens (Human), UniProt P08684); assay: CYP3A4 inhibition study; type: in vitro ADME; settings: for inhibition at 15 µM: human, read-out: 15 μM % Inh
Method: (§2) Assessment of certain in vitro ADME (absorption, distribution, metabolism, and excretion) parameters for certain compounds of the invention was conducted by BioFocus (Saffron Walden, UK).

[8] = test system: endotoxin (LPS)-induced uveitis in Lewis rats; assay: Endotoxin-induced uveitis in rats (in vivo vi); set-up: species or system rat
Method: Male, Lewis rats (6-8 weeks old, Charles River UK Limited) are housed in cages of 3 at 19-21° C. with a 12 h light/dark cycle (07:00/19:00) and fed a standard diet of rodent chow and water ad libitum. Non-fasted rats are weighed, individually identified on the tail with a permanent marker, and receive a single intravitreal administration into the right vitreous humor (5 μL dose volume) of 100 ng/animal of LPS (Escherichia coli 0111:B4 prepared in PBS, Sigma Aldrich, UK) using a 32-gauge needle. Untreated rats are injected with PBS. […] Following euthanasia, the right eye of each animal is enucleated and dissected into front (anterior) and back (posterior) sections around the lens. Each section is weighed and homogenised in 500 μL of sterile phosphate buffered saline followed by 20 minutes centrifugation at 12000 rpm at 4° C.

[9] = Plasma pharmacokinetics in rats, single intravenous or oral administration; type: in vivo, rat (male Wistar); settings: rats
Method: Studies were conducted by Sai Life Sciences (Hinjewadi, Pune, India) to investigate the plasma pharmacokinetics and total colon tissue distribution of compounds of the invention. In particular, pharmacokinetic studies were carried out in: • male C57BL/6 mice, following a single oral administration; and • male Wistar rats following a single intravenous or oral administration.

[10] = test system: TNBS-induced colitis in BDF1 mice; assay: TNBS-induced colitis in mice (in vivo iv); set-up: species or system mouse; settings: for inflammatory cell infiltrate in the reticular and laminar propria zones / ulcer grade and epithelial repair compared to the vehicle control: 5 mg/kg orally, 2 days; for inflammatory cell infiltrate in the reticular and laminar propria zones / ulcer grade and epithelial repair compared to the vehicle control / activity in in vivo model of colonic inflammation (histopathology analysis): TNBS-induced colitis, mice; for LP inflammation / Ulcer grade: TNBS-induced colitis in mice, 5 mg/kg oral; for activity in in vivo model of colonic inflammation (histopathology analysis): conducted over 2 days
Method: Non-fasted, 10-12 week old, male BDF1 mice are dosed by oral gavage twice daily with either vehicle (5 mL/kg), reference item (Budesonide 2.5 mg/kg) or test compound (1 or 5 mg/kg) one day before (Day −1) stimulation of the inflammatory response by treatment with 2,4,6-trinitrobenzenesulphonic acid (TNBS) (15 mg/mL in 50% ethanol/50% saline). On Day 0 of the study TNBS (200 μL) is administered intra-colonically via a plastic catheter with BID dosing of the vehicle, reference or test compound continuing for 2 or 4 days. During the study, animals are weighed every day and stool observations are made and recorded as a score, based on stool consistency. At the time of sacrifice on Day 2 (or Day 4), the large intestine is removed and the length and weight recorded. Sections of the colon are taken for histopathology scoring to determine disease severity.

[11] = target: CYP2C9 (Homo sapiens (Human), UniProt P11712); assay: CYP2C9 inhibition study; type: in vitro ADME; settings: 5 μM (precipitation at 15 μM)
Method: as §2

[12] = Hydrolytic stability study; type: physicochemical; settings: for % Parent Remaining: DMSO:water (3:1), 1 mg/mL
Method: Chemical stability of compounds of the invention was assessed in a mixture of DMSO and water (3:1) at a test compound concentration of 1 mg/mL
Sample Preparation • A 1.0 mg sample of test compound was dissolved in 750 μL of DMSO. Water (250 μL) was added slowly, ensuring no precipitation occurred.
Recording Stability • A 50 μL aliquot of the test solution was removed and analysed in duplicate by 5 μL HPLC injections. The peak area for the test compound was recorded following manual integration of the corresponding UV trace. • The test solution was heated to 60° C., with stirring, and 50 μL aliquots removed for HPLC analysis at 5 and 24 h timepoints.

[13] = Table 7c, eyes of LPS-stimulated rats, 1 mg/mL
[14] = male, Wistar, rat, plasma, intravenous 0.25 mg/kg

CYP3A4, sequence (P08684 whole entry): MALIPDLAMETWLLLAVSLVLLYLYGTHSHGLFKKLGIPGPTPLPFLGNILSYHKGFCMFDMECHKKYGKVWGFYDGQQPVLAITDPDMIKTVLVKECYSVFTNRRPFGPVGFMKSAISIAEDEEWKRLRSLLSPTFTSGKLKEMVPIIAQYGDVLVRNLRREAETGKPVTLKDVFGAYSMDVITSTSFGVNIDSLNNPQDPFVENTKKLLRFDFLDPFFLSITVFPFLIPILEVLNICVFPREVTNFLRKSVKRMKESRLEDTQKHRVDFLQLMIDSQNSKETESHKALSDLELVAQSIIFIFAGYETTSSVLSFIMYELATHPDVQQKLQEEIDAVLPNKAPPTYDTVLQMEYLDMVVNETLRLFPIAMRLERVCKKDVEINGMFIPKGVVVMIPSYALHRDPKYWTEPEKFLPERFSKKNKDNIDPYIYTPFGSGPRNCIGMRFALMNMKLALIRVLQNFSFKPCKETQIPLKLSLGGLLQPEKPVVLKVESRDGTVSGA
p38 MAPKα (MAPK14), sequence (Q16539 whole entry): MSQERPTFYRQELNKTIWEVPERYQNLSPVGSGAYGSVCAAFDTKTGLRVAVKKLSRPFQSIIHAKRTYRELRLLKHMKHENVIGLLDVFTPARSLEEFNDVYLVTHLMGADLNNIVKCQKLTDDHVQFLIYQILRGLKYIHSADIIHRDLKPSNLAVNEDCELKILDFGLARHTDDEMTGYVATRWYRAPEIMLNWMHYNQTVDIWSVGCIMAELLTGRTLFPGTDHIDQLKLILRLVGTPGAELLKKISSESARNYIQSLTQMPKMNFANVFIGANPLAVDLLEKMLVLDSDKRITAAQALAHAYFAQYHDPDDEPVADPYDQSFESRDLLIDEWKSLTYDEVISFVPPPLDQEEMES
GSK 3α, sequence (P49840 whole entry): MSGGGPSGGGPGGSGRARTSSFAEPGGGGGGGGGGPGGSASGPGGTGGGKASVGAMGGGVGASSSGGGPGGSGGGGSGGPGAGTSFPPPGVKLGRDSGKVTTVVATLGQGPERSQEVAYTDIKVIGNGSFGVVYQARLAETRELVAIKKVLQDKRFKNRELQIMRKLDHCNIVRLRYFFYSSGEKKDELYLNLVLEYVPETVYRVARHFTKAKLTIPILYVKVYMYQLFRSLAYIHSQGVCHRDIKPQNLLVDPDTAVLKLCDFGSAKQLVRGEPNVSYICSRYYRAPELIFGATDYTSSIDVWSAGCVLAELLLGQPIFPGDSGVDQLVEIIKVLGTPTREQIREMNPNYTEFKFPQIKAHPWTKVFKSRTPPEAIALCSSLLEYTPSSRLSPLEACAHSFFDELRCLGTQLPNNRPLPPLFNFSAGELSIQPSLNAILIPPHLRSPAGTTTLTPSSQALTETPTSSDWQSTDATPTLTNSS
c-Src, sequence (P12931 whole entry, looked up): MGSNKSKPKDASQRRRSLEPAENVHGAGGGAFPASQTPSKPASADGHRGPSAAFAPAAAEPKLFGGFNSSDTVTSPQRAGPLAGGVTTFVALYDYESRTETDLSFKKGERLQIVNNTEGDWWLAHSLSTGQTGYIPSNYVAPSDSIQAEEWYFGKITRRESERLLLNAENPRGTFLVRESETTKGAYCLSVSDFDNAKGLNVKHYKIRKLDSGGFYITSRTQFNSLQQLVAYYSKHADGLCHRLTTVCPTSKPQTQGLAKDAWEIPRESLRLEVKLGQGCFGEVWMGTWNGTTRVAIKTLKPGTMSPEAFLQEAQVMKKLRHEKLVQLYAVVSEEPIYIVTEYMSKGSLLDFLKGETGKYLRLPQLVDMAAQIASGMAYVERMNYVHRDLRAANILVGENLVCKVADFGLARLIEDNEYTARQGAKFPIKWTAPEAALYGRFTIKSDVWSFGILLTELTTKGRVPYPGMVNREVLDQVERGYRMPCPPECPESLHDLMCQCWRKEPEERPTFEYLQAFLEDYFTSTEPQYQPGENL
CYP2C9, sequence (P11712 whole entry): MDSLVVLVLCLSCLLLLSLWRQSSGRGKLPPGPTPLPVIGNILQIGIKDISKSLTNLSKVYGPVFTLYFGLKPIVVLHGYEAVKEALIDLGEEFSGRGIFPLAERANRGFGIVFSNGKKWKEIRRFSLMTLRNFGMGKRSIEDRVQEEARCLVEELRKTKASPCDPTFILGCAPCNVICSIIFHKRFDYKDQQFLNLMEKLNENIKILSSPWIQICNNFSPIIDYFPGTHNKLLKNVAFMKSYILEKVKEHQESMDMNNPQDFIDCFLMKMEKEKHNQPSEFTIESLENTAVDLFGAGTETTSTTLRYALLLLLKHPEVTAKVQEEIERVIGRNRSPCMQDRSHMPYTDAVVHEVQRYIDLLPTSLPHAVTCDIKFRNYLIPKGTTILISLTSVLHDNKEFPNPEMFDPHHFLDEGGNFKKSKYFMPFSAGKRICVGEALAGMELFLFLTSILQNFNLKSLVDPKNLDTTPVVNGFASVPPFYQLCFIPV

COc1c(NC(=O)Nc2ccc(Oc3ccnc(Nc4ccccc4)c3)c3ccccc23)cc(C(C)(C)C)cc1C(=O)N[C@H]1CCOC1 [84(d), 3-[[4-[(2-Anilino-4-pyridyl)oxy]-1-naphthyl]carbamoylamino]-5-tert-butyl-2-methoxy-N-[(3S)-tetrahydrofuran-3-yl]benzamide]
IC50 [1]: 6280 nM | IC50 ([2]; Homo sapiens, PBMC): 11.5 nM

COc1cc(Nc2nccc(Oc3ccc(NC(=O)Nc4cc(C(C)(C)C)cc(NS(C)(=O)=O)c4OC)c4ccccc34)n2)cc(S(=O)(=O)C2CC2)c1 [Example 5]
IC50 [3]: 271 nM | IC50 [4]: 48 nM | IC50 [5]: 1170 nM | IC50 [1]: 2870 nM | % β-catenin induction ([6]; test compound 1 μg/mL): 10% | % β-catenin induction ([6]; test compound 5 μg/mL): 27% | % β-catenin induction ([6]; test compound 10 μg/mL): 19% | IC50 ([7]; CYP3A4, 0 min preincubation): > 15000 nM | IC50 ([7]; CYP3A4, 30 min preincubation): > 15000 nM | inhibition at 15 µM ([7]; CYP3A4, 0 min preincubation): 0% | inhibition at 15 µM ([7]; CYP3A4, 30 min preincubation): 27%

CNC(=O)c1cc(C(C)(C)C)cc(NC(=O)Nc2ccc(Oc3ccnc(Nc4cc(OC)cc(OCCOCCOCCOC)c4)c3)c3ccccc23)c1OC [Example 29, 5-(tert-Butyl)-2-methoxy-3-(3-(4-((2-((3-methoxy-5-(2-(2-(2-methoxyethoxy)ethoxy)-ethoxy)phenyl)amino)pyridin-4-yl)oxy)naphthalen-1-yl)ureido)-N-methylbenzamide]
IC50 [3]: 26 nM | IC50 [4]: 19 nM | IC50 [5]: 96 nM | IC50 [1]: 6320 nM | % β-catenin induction ([6]; test compound 1 μg/mL): 4% | % β-catenin induction ([6]; test compound 5 μg/mL): 7% | % β-catenin induction ([6]; test compound 10 μg/mL): −4% | Cell counts [8, 13]: 33.0 ± 6.7 | IL-1β Anterior tissue [8, 13]: 441.3 ± 138.5 pg/mL | IL-1β Posterior tissue [8, 13]: 272.1 ± 93.8 pg/mL | cytokine levels in both the anterior and posterior segments of the eyes ([8]; rats treated with intravitreal endotoxin LPS, topical dosing): significantly reduced | AUC(0-inf) [9, 14]: 295 ng·h/mL | AUC(0-t) [9, 14]: 293 ng·h/mL | half-life [9, 14]: 42 min | C0 ([9]; male, Wistar, rat, plasma, intravenous 0.25 mg/kg in 5% DMSO-7.5% Solutol HS15-87.5% normal saline): 2500 ng/mL | Vd ([9]; male, Wistar, rat, plasma, intravenous 0.25 mg/kg, read-out: Vss): 0.3 L/kg | CI ([9]; intravenous 0.25 mg/kg): 14.2 mL/min/kg

COCCOCCOCCOc1cc(Nc2cc(Oc3ccc(NC(=O)Nc4cc(C(C)(C)C)cc(C(N)=O)c4OC)c4ccccc34)ccn2)cc(OC)c1 [Example 34, 5-(tert-Butyl)-2-methoxy-3-(3-(4-((2-((3-methoxy-5-(2-(2-(2-methoxyethoxy)ethoxy)ethoxy)phenyl)amino)pyridin-4-yl)oxy)naphthalen-1-yl)ureido)benzamide]
IC50 [3]: 25 nM | IC50 [4]: 19 nM | IC50 [5]: 85 nM | IC50 [1]: 9330 nM | % β-catenin induction ([6]; test compound 1 μg/mL): 1% | % β-catenin induction ([6]; test compound 5 μg/mL): 7% | % β-catenin induction ([6]; test compound 10 μg/mL): −9% | inflammatory cell infiltrate in the reticular and laminar propria zones [10]: marked reduction | ulcer grade and epithelial repair compared to the vehicle control [10]: marked improvements | LP inflammation [10]: 2.6 ± 0.3 | Ulcer grade [10]: 3.6 ± 0.2 | activity in in vivo model of colonic inflammation (histopathology analysis) [10]: substantial activity

COc1cc(Nc2cc(Oc3ccc(NC(=O)Nc4cc(C(C)(C)C)cc(NS(C)(=O)=O)c4OC)c4ccccc34)ccn2)cc(C(=O)NCCN2CCN(C)CC2)c1 [Example 79]
IC50 [3]: 56 nM | IC50 [4]: 35 nM | IC50 [5]: 339 nM | IC50 [1]: 4330 nM | % β-catenin induction ([6]; test compound 1 μg/mL): −4% | % β-catenin induction ([6]; test compound 5 μg/mL): 1% | % β-catenin induction ([6]; test compound 10 μg/mL): 5% | inflammatory cell infiltrate in the reticular and laminar propria zones [10]: marked reduction | ulcer grade and epithelial repair compared to the vehicle control [10]: marked improvements | LP inflammation [10]: 3.5 ± 0.5 | Ulcer grade [10]: 3.4 ± 0.6 | activity in in vivo model of colonic inflammation (histopathology analysis) [10]: substantial activity

COCCOCCOCCOCCNC(=O)c1cc(Nc2cc(Oc3ccc(NC(=O)Nc4cc(C(C)(C)C)cc(NS(C)(=O)=O)c4OC)c4ccccc34)ccn2)cc(OC)c1 [Example 85(v), 3-[[4-[[4-[[5-tert-Butyl-3-(methanesulfonamido)-2-methoxyphenyl]-carbamoylamino]-1-naphthyl]oxy]-2-pyridyl]amino]-5-methoxy-N-[2-[2-[2-(2-methoxyethoxy)ethoxy]ethoxy]-ethyl]benzamide]
IC50 [1]: 2520 nM | IC50 [2]: 0.4 nM

C#CC(C)(C)c1cc(NC(=O)Nc2ccc(Oc3ccnc(Nc4cc(C)c5[nH]ncc5c4)n3)c3ccccc23)n(-c2ccc(C)cc2)n1 [Ref Cpd A]
15 μM % Inh ([7]; CYP3A4, 0 min preincubation): 41% | 15 μM % Inh ([7]; CYP3A4, 30 min preincubation): 92% | % Inh (inhibition at 5 μM reported instead) ([11]; CYP2C9, 0 min preincubation): 31^[†] % | % Inh (inhibition at 5 μM reported instead) ([11]; CYP2C9, 30 min preincubation): 66^[†] %

C#Cc1cc(Nc2nccc(Oc3ccc(NC(=O)Nc4cc(C(C)C)nn4-c4ccc(C)cc4)c4ccccc34)n2)cc(C(=O)NCCN2CCOCC2)c1 [Reference Compound B, 3-ethynyl-5-((4-((4-(3-(3-isopropyl-1-(p-tolyl)-1H-pyrazol-5-yl)ureido)naphthalen-1-yl)oxy)pyrimidin-2-yl)amino)-N-(2-morpholinoethyl)benzamide, reference compound]
decomposition under the conditions of the hydrolytic stability experiment ([12]; 1 mg/mL in DMSO and water (3:1), 60° C., 5 and 24 h): substantial decomposition | % Parent Remaining ([12]; 0 min): 100% | % Parent Remaining ([12]; 60° C., 300 min): 82% | % Parent Remaining ([12]; 60° C., 1440 min): 36%
